Source: US20260023068A1, “USE OF A FBXO42 SPECIFIC INHIBITOR IN TREATING NOTCH SIGNALING-DEPENDENT DISEASE” (WESTLAKE UNIVERSITY, priority 2022, published 2026)

Legend:
[1] = test system: Notch target genes in JURKAT and HSB2 cells; assay: qPCR of Notch target genes in leukemia cells; type: cell-based, human; conditions: JURKAT and HSB2, qPCR (FIGS. 12M and 12N)
Experimental: FBXO42-KO cells were rescued with WT FBXO42 or F-box deletion mutant and were used in the following studies. (A-C) The mRNA levels of Notch target genes in the treated HEK293T (A), JURKAT (B) and HSB2 (C) cells were determined by qPCR. (D-G) The invasion abilities of the treated JURKAT (D) and HSB2 (F) cells were evaluated using a 3D culture system with Matrigel. Scale bars, 50 μm. The respective average diameter of the spheres in D and F was summarized, respectively (E and G). (H-K) Anchorage-independent growth of the rescued JURKAT (H) and HSB2 (J) cells was measured using a soft agar colony formation assay. The number of colonies in H and J was counted and summarized, respectively (I and K). (L) JURKAT and HSB2 cells were treated with MLN4924 in a concentration-gradient manner for 36 h and then evaluated for the cell viability using cell counting kit-8 assay. (M and N) The expression of Notch target genes in MLN4924-treated JURKAT (M) and HSB2 (N) cells were determined by qPCR. (O-R) Anchorage-independent growth of MLN4924-treated JURKAT (0) and HSB2 (Q) cells was measured using soft agar colony formation assays. The number of colonies was counted and summarized (P and R). (A-R, n=3) The data are shown as the mean±SEM from the independent experiments. P values were calculated using one-way ANOVA for multiple comparisons or two-tailed Student's t-tests. *P<0.05, ** P<0.01, *** P<0.001. […]

JURKAT and HSB2 cells = assay: Cell viability, cell counting kit-8 assay; type: cell-based, human; conditions: JURKAT and HSB2, concentration gradient, 36 h, CCK-8 (FIG. 12L)
Experimental: FBXO42-KO cells were rescued with WT FBXO42 or F-box deletion mutant and were used in the following studies. (A-C) The mRNA levels of Notch target genes in the treated HEK293T (A), JURKAT (B) and HSB2 (C) cells were determined by qPCR. (D-G) The invasion abilities of the treated JURKAT (D) and HSB2 (F) cells were evaluated using a 3D culture system with Matrigel. Scale bars, 50 μm. The respective average diameter of the spheres in D and F was summarized, respectively (E and G). (H-K) Anchorage-independent growth of the rescued JURKAT (H) and HSB2 (J) cells was measured using a soft agar colony formation assay. The number of colonies in H and J was counted and summarized, respectively (I and K). (L) JURKAT and HSB2 cells were treated with MLN4924 in a concentration-gradient manner for 36 h and then evaluated for the cell viability using cell counting kit-8 assay. (M and N) The expression of Notch target genes in MLN4924-treated JURKAT (M) and HSB2 (N) cells were determined by qPCR. (O-R) Anchorage-independent growth of MLN4924-treated JURKAT (0) and HSB2 (Q) cells was measured using soft agar colony formation assays. The number of colonies was counted and summarized (P and R). (A-R, n=3) The data are shown as the mean±SEM from the independent experiments. P values were calculated using one-way ANOVA for multiple comparisons or two-tailed Student's t-tests. *P<0.05, ** P<0.01, *** P<0.001.

JURKAT xenograft = type: in vivo; conditions: 30 mg/kg subcutaneously twice daily for 21 days, BALB/c nude mice (FIG. 13S-V)
Experimental: (A-H) Xenograft tumor growth studies were performed with WT or FBXO42-KO JURKAT (A-D) and HSB2 (E-H) cells. Mice were euthanized 4 weeks after tumor cell injection. The tumors were excised, photographed, and weighed. The volumes (B and F) and weights (C and G) of the tumors were measured, respectively. The mRNA levels of Notch target genes in tumors were determined by qPCR, respectively (D and H). (I-K) In vivo leukemia mouse model was established by injecting WT and FBXO42-KO JURKAT cells carrying GFP into NSG mice intravenously. The percentage of GFP^+ leukemia cells in peripheral blood was measured weekly by flow cytometry analysis (I) and summarized (K). […] (L-O) Spleens in mice from different groups were excised, a representative image is shown (L), and the spleen weight was measured (M). Tumor cell invasion was evaluated by measuring GFP intensity by fluorescence microscopy (N) and hemoxylin and eosin staining (O). […] The volumes (S) and weights (T) of the tumors and mouse weight (U) were measured. (A-O, S-V, n=5, P-R, n=10) Quantitative data are presented as mean±SEM. P values were calculated using two-tailed Student's t-tests. *P<0.05, **P<0.01, NS, not significant.
For the evaluation of MLN4924 efficacy in vivo, 6- to 8-week-old female BALB/c nude mice were inoculated with 5×10^6 JURKAT cells subcutaneously in the right flank, and tumor growth was monitored with caliper measurements. […]

[2] = test system: global protein ubiquitination; assay: Global mass spectrometry-based analysis of protein ubiquitination; type: cell-based; conditions: global ubiquitination changes upon MLN4924 treatment (FIGS. 5E and 5F)
Experimental: (A) Endogenous RBPJ ubiquitination was measured under FBXO42 overexpression after immunoprecipitation with antibody against RBPJ and immunoblotted for Ub. Five percent lysate was used as the input control. (B) cSFB-RBPJ, hemagglutinin-ubiquitin (HA-Ub) and Myc-FBXO42 WT or AK mutant were cotransfected into HEK293T cells as indicated and treated with MG132 for 4 h. The cell lysates were incubated with S beads and analyzed by western blotting for RBPJ polyubiquitination detection. (C) Peptide sequence with ubiquitination modification identified in WT and FBXO42 KO cells. (D) HEK293T cells were cotransfected with Myc-FBXO42, HA-Ub WT along with cSFB-RBPJ WT or its lysine mutants as indicated. The cell lysates were incubated with S beads and analyzed by western blotting for RBPJ polyubiquitination detection. (E) Summary of identified peptides in global ubiquitination analysis upon MLN4924 treatment or FBXO42 depletion. (F) Percentage of ubiquitinated peptides among different groups. (G and H) Gene Ontology analysis of these proteins with differential ubiquitination modification. (I and J) Venn diagram showing the overlap between identified differential proteins with reported Notch interactors.
Global protein ubiquitination analysis was performed according to the manufacture's guidance (5562, CST). […]

Compound: NS(=O)(=O)OC[C@@H]1C[C@@H](n2ccc3c(N[C@H]4CCc5ccccc54)ncnc32)C[C@@H]1O [MLN4924]
- Notch target gene expression of leukemia cells [1]: diminished
- cell viability of leukemia cells (JURKAT and HSB2 cells): diminished
- leukemia burden in vivo (tumor growth rate) (JURKAT xenograft): reduced
- percentage of ubiquitinated peptides [2]: decreased
